Nine compounds from ChEMBL document CHEMBL1641486, “Synthesis of 3'-azido-3'-deoxythymidine (AZT)--Cinchona alkaloid conjugates via click chemistry: Toward novel fluorescent markers and cytostatic agents” (2011) can be followed below.

The test system of this assay is KB. Briefly: Cytotoxicity against human KB cells assessed as inhibition of protein biosynthesis. The following applies: read-out: ED50 (the source's name). The class given is functional.

≈ marks a conversion by molar mass, not a printed value.

As to `COc1ccc2nccc([C@@H](O)[C@@H]3CC4CCN3CC4c3cn([C@H]4C[C@H](n5cc(C)c(=O)[nH]c5=O)O[C@@H]4CO)nn3)c2c1` (some centres undefined), the EC50 was 1.3 µg/mL (≈ 2.2 µM).

Turning to `COc1ccc2nccc([C@H](O)[C@H]3CC4CCN3CC4c3cn([C@H]4C[C@H](n5cc(C)c(=O)[nH]c5=O)O[C@@H]4CO)nn3)c2c1` (some centres undefined), the EC50 was determined as 12 µg/mL (≈ 20.4 µM).

Take `Cc1cn([C@H]2C[C@H](n3cc(C4CN5CCC4C[C@H]5[C@H](O)c4ccnc5ccccc45)nn3)[C@@H](CO)O2)c(=O)[nH]c1=O` (some centres undefined): the EC50 was determined as 11.6 µg/mL (≈ 20.7 µM).

In the case of `Cc1cn([C@H]2C[C@H](n3cc(C4CN5CCC4C[C@@H]5[C@@H](O)c4ccnc5ccccc45)nn3)[C@@H](CO)O2)c(=O)[nH]c1=O` (some centres undefined), the EC50 came to 21 µg/mL (≈ 37.5 µM).

Take `C=CC1CN2CCC1C[C@H]2[C@H](OCc1cn([C@H]2C[C@H](n3cc(C)c(=O)[nH]c3=O)O[C@@H]2CO)nn1)c1ccnc2ccc(OC)cc12` (some centres undefined): the EC50 was 2.1 µg/mL (≈ 3.33 µM).

Turning to `C=CC1CN2CCC1C[C@@H]2[C@@H](OCc1cn([C@H]2C[C@H](n3cc(C)c(=O)[nH]c3=O)O[C@@H]2CO)nn1)c1ccnc2ccc(OC)cc12` (some centres undefined), the EC50 was determined as 3.9 µg/mL (≈ 6.19 µM).

On to `C=CC1CN2CCC1C[C@H]2[C@H](OCc1cn([C@H]2C[C@H](n3cc(C)c(=O)[nH]c3=O)O[C@@H]2CO)nn1)c1ccnc2ccccc12` (some centres undefined), for which the EC50 is more than 100 µg/mL.

Take `C=CC1CN2CCC1C[C@@H]2[C@@H](OCc1cn([C@H]2C[C@H](n3cc(C)c(=O)[nH]c3=O)O[C@@H]2CO)nn1)c1ccnc2ccccc12` (some centres undefined): the EC50 was more than 100 µg/mL.

`Nc1ccn([C@@H]2O[C@H](CO)[C@@H](O)[C@@H]2O)c(=O)n1` [CYTARABINE]: the EC50 turned out to be 0.99 µg/mL (≈ 4.07 µM).
